Patent publication US10633348B2, “Methods to treat lymphoplasmacytic lymphoma” (Dana-Farber Cancer Institute, Inc., priority 2013, dated 2020)
Like-named read-outs stand apart in the source and are kept apart here.

Legend:
Assay type in all cases: cell-based
BCWM.1 = assay: CellTiter-Glo cell viability assay; conditions: BCWM1, 72 h
Protocol: (§1) CellTiter-Glo® Luminescent cell viability assay (Promega) was used to assess cell survival following treatment with the compounds described. Cells were seeded into 384 well plates with the EL406 Combination Washer Dispenser (BioTek Instruments, Inc.) and the compounds were injected into the cells culture media with the JANUS Automated Workstation (PerkinElmer Inc.). Cells were treated with a series diluted inhibitors (20˜0.04 μM) for 72 hours at 37° C. Luminescent measurement is performed using the 2104 Envision® Multilabel Reader (PerkinElmer Inc.).

MWCL-1 = assay: CellTiter-Glo cell viability assay; conditions: 72 h
Protocol: as §1

OCI-Ly19 = assay: CellTiter-Glo cell viability assay; conditions: Homo sapiens, OCI-LY19, 72 h
Protocol: as §1

Ramos = assay: CellTiter-Glo cell viability assay; conditions: Homo sapiens, 72 h
Protocol: as §1

Abl = assay: KiNativ kinase profiling in A375 cells
FYN = assay: KiNativ kinase profiling in A375 cells
LYN = tested on: LYN
ZAK = tested on: ZAK
AMPKa1, AMPKa2 = assay: KiNativ kinase profiling in A375 cells; conditions: Lys2, SEQ ID NO 4, 1.0 μM
CaMK1a = tested on: CaMK1a
CAMK2G = tested on: CAMK2G
CAMK4 = tested on: CAMK4
CHK2 = tested on: CHK2
DNAPK = tested on: DNAPK
ERK5 = tested on: ERK5
FES = tested on: FES
FRK = tested on: FRK
LATS1 = tested on: LATS1
LKB1 = tested on: LKB1
MAP2K6 = tested on: MAP2K6
MER = tested on: MER
MSK1 domain1 = tested on: MSK1 domain1
NDR1 = tested on: NDR1
NEK2 = tested on: NEK2
NEK3 = tested on: NEK3
p70S6K = tested on: p70S6K
PCTAIRE1 = tested on: PCTAIRE1
PHKG2 = tested on: PHKG2
PIP4K2C = tested on: PIP4K2C
PKD2 = tested on: PKD2
PKN1 = tested on: PKN1
PYK2 = tested on: PYK2
RSKL1 = tested on: RSKL1
SGK3 = tested on: SGK3
SNRK = tested on: SNRK
TAO1, TAO3 = assay: KiNativ kinase profiling in A375 cells; conditions: Lys2, SEQ ID NO 182, 1.0 μM
ULK3 = tested on: ULK3
VRK2 = tested on: VRK2
YANK3 = tested on: YANK3
BTK-pY223 = assay: PhosFlow; conditions: BCWM.1, Hck-wt and Hck-mu BCWM.1 cells; 0.5 μM and 0.1 μM
Protocol: PhosFlow was performed to detect levels of phosphorylation for BTK-pY223 (BD Biosciences) and Hck-pY410 (Abcam) in BCWM.1 cells, in BCWM cells that stably overexpress HCK (BCWM.1_HCK-wt) and in BCWM.1 cells that stably overexpress the T338M mutant of HCK (BCWM.1_HCK-mu). Cells were fixed with BD Phosflow Fix Buffer I (BD Biosciences) at 37° C. for 10 min, then washed twice with BD Phosflow Perm/Wash Buffer I (BD Biosciences). Cells were suspended in BD Phosflow Perm/Wash Buffer I at 10 million/ml and antibodies aliquoted to flow tubes with 100 μl cells. Cells were incubated at room temperature for 30 min in the dark. Cells were washed twice with BD Phosflow Perm/Wash Buffer I before performing flow analysis using a BD™ FACSCanto II flow cytometer.

Hck-pY410 = assay: PhosFlow; conditions: BCWM.1, Hck-wt and Hck-mu BCWM.1 cells; 0.5 μM and 0.1 μM

CCN1CCN(Cc2ccc(NC(=O)c3ccc(C)c(Oc4cc(N)ncn4)c3)cc2C(F)(F)F)CC1 [(A-4), 3-((6-aminopyrimidin-4-yl)oxy)-N-(4-((4-ethylpiperazin-1-yl)methyl)-3-(trifluoromethyl)phenyl)-4-methylbenzamide]
EC50 (BCWM.1): 3.01 µM | EC50 (MWCL-1): 1.15 µM | EC50 (OCI-Ly19): 9.43 µM | EC50 (Ramos): 21.1 µM | inhibition of kinase labeling (Abl; ABL, ARG, Activation Loop, SEQ ID NO 1, 1.0 μM, A375 cells): 95.5% | inhibition of kinase labeling (FYN; FYN, SRC, YES, Activation Loop, SEQ ID NO 50, 1.0 μM, A375 cells): 71.2% | inhibition of kinase labeling (LYN): 87.8% | inhibition of kinase labeling (ZAK): 75.7% | inhibition of kinase labeling (AMPKa1, AMPKa2): 16.3% | inhibition of kinase labeling (CaMK1a): 12.4% | inhibition of kinase labeling (CAMK2G): −23.1% | inhibition of kinase labeling (CAMK4): 5.9% | inhibition of kinase labeling (CHK2): −7.8% | inhibition of kinase labeling (DNAPK; ATP site peptide SEQ ID NO 37): −61.5% | inhibition of kinase labeling (DNAPK; ATP site peptide SEQ ID NO 38): −64.6% | inhibition of kinase labeling (ERK5): 25.9% | inhibition of kinase labeling (FES): 89.1% | inhibition of kinase labeling (FRK): 91.1% | inhibition of kinase labeling (LATS1): 5.4% | inhibition of kinase labeling (LKB1): −6.0% | inhibition of kinase labeling (MAP2K6): 0.5% | inhibition of kinase labeling (MER): 49.8% | inhibition of kinase labeling (MSK1 domain1): 5.7% | inhibition of kinase labeling (NDR1): 9.3% | inhibition of kinase labeling (NEK2): −22.7% | inhibition of kinase labeling (NEK3): 13.1% | inhibition of kinase labeling (p70S6K): −2.3% | inhibition of kinase labeling (PCTAIRE1): −3.5% | inhibition of kinase labeling (PHKG2): 15.2% | inhibition of kinase labeling (PIP4K2C): 5.2% | inhibition of kinase labeling (PKD2): −6.9% | inhibition of kinase labeling (PKN1): −32.1% | inhibition of kinase labeling (PYK2): 10.9% | inhibition of kinase labeling (RSKL1): 31.5% | inhibition of kinase labeling (SGK3): −10.2% | inhibition of kinase labeling (SNRK): 18.0% | inhibition of kinase labeling (TAO1, TAO3): 76.5% | inhibition of kinase labeling (ULK3): −4.4% | inhibition of kinase labeling (VRK2): 27.9% | inhibition of kinase labeling (YANK3): 27.7%

CCN1CCN(Cc2ccc(NC(=O)c3ccc(C)c(Oc4ccnc(Nc5cnn(C)c5)n4)c3)cc2C(F)(F)F)CC1 [(A-14), N-(4-((4-ethylpiperazin-1-yl)methyl)-3-(trifluoromethyl)phenyl)-4-methyl-3-((2-((1-methyl-1H-pyrazol-4-yl)amino)pyrimidin-4-yl)oxy)benzamide]
EC50 (BCWM.1): 0.033 µM | EC50 (MWCL-1): 0.128 µM | EC50 (OCI-Ly19): 0.179 µM | EC50 (Ramos): 2.09 µM | Abl inhibition (Abl; 1 μM, A375 cells): > 90% | KiNativ inhibition (Abl; ABL, ARG, Activation Loop, SEQ ID NO 200, 1.0 μM): 98.4% | FYN inhibition (FYN; 1 μM, A375 cells): 88.2% | KiNativ inhibition (FYN; FYN, SRC, YES, Activation Loop, SEQ ID NO 255, 1.0 μM): 88.2% | KiNativ inhibition (LYN): 85.7% | LYN inhibition (LYN): 85.7% | KiNativ inhibition (ZAK): 75.8% | ZAK inhibition (ZAK): 75.8% | BTK phosphorylation (BTK-pY223): inhibit | Hck phosphorylation (Hck-pY410): inhibit
